Results from US9708639B2, “Method for quantifying amino acids with pyrophosphate” (TOYAMA PREFECTURE, priority 2012, dated 2017).

Tests used:
Test in all cases: Qualitative test of AARS substrate specificity (molybdenum blue method)
Type in all cases: biochemical, Thermotoga maritima MSB8 strain
Design in all cases: key: +: Activity was detected; −: Activity was not detected
Thermotoga-derived LysRS = target: T1, Thermotoga-derived LysRS (Thermotoga maritima, UniProt Q9X231); details: Tyr 1 mM, other amino acids 5 mM; hydroxylamine 1000 mM; LysRS 0.2 mg/ml (3 mU/ml); 30° C.
T1 construct: His tag (C); made in house; host or cells: Escherichia coli BL21 (DE3)
T1 sequence (Q9X231 1-502): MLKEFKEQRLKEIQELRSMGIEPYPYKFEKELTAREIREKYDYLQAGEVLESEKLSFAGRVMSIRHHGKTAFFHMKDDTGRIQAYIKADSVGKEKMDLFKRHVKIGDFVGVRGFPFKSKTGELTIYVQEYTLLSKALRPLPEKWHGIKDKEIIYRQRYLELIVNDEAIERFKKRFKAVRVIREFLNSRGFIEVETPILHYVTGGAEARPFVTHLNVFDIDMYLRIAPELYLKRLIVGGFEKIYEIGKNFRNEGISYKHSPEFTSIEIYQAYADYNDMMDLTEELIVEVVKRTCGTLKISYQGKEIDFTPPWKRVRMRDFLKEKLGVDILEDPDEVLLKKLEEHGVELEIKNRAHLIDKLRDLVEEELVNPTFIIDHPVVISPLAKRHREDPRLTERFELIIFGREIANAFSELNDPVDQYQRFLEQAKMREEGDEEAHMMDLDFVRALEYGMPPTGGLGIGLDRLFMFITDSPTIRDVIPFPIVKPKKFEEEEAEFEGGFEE
Protocol: (§1) A test sample containing an amino acid as the measurement subject and a reaction mixture for quantifying amino acid having the following composition were mixed. The mixture was left standing at 30° C. to allow the AARS reaction to advance. The mixture in a volume of 33 μl, 66 μl of water, and 1 μl of a 300 U/ml yeast pyrophosphatase solution were mixed, and left standing at room temperature for 20 minutes to allow the pyrophosphatase reaction to advance. Then, the reaction mixture was mixed with 100 μl of a color development solution A and 30 μl of a color developing solution B having the following compositions, then the mixture was left standing at room temperature for 5 minutes, and the absorbance was measured at 700 nm or 900 nm with a microplate reader.
(§2) Reaction mixture for quantifying amino acid: 20 mM Tris-HCl (pH 7.0), 5 mM MgCl2, 2 mM ATP, and AARS (concentrations are final concentrations obtained after mixing with test sample)
(§3) Color developing solution A: A solution obtained by mixing water and concentrated sulfuric acid at a ratio of 3:1 and dissolving (NH4)6Mo7O24.4H2O in the mixture at a concentration of 0.066 g/ml
(§4) Color developing solution B: A solution obtained by mixing water and concentrated sulfuric acid at a ratio of 10000:7 and dissolving FeSO4.7H2O in the mixture at a concentration of 145 mg/ml
(§5) Presence or absence of pyrophosphate generation was verified for the Thermotoga-derived CysRS, HisRS, LysRS, ProRS, SerRS, TrpRS, and TyrRS by using the AARS activity measurement method described in 9. and standard solutions of the various amino acids as test samples. AARSs were added to the reaction mixture at final concentrations of 0.3 (8 mU/ml), 0.1, 0.2 (3 mU/ml), 0.2, 0.1 (1 mU/ml), 0.1, 0.2 (20 mU/ml) mg/ml, respectively. The reaction mixtures were prepared so that the final concentration of Tyr was 1 mM, and the final concentrations of the other amino acids were 5 mM. As for the hydroxylamine concentration, it was added at a final concentration of 1000 mM for all the cases. Further, presence or absence of pyrophosphate production was also verified for the Thermus-derived MetRS and TyrRS by using the AARS activity measurement method described in 10. and standard solutions of the various amino acids as test samples. The reaction mixtures were prepared so that the final concentrations of the amino acids were 200 μM. Hydroxylamine was added at a final concentration of 400 mM.
(§6) Detection or no detection of the activity in the reaction mixtures containing a combination of each AARS and amino acid are shown in Table 2. The symbol + indicates detection of the activity, and − indicates no detection of the activity.

Thermotoga-derived SerRS = target: T2, Thermotoga-derived SerRS (Thermotoga maritima, UniProt Q9X199); details: Tyr 1 mM, other amino acids 5 mM; hydroxylamine 1000 mM; SerRS 0.1 mg/ml (1 mU/ml); 30° C.
T2 construct: His tag (C); made in house; host or cells: Escherichia coli BL21 (DE3)
T2 sequence (Q9X199 whole entry): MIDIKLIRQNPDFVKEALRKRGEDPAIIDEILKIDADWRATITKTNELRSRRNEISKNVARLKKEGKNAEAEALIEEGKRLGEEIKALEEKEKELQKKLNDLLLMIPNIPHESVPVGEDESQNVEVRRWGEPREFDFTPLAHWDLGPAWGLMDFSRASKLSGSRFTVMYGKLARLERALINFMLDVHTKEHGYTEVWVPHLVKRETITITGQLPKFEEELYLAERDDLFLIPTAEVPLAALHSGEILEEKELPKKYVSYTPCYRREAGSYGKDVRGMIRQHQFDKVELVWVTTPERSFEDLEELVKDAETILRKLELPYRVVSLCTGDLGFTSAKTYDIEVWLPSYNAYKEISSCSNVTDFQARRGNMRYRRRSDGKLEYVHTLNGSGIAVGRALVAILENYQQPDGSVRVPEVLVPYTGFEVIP
Protocol: as §1, §2, §3, §4, §5, §6

Thermotoga-derived TrpRS = target: T3, Thermotoga-derived TrpRS (Thermotoga maritima, UniProt Q9WYW2); details: Tyr 1 mM, other amino acids 5 mM; hydroxylamine 1000 mM; TrpRS 0.1 mg/ml; 30° C.
T3 construct: His tag (C); made in house; host or cells: Escherichia coli BL21 (DE3)
T3 sequence (Q9WYW2 1-328): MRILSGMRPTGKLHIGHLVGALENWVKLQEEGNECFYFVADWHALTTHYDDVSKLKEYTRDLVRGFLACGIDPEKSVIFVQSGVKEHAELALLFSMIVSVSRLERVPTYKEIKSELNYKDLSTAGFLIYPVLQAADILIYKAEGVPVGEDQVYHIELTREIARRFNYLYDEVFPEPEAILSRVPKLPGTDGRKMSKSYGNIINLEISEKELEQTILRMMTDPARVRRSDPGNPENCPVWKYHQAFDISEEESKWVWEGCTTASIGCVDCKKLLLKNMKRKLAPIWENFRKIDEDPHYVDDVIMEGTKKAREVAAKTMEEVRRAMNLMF
Protocol: as §1, §2, §3, §4, §5, §6

Thermotoga-derived TyrRS = target: T4, Thermotoga-derived TyrRS (Thermotoga maritima, UniProt Q9WYU8); details: Tyr 1 mM, other amino acids 5 mM; hydroxylamine 1000 mM; TyrRS 0.2 mg/ml (20 mU/ml); 30° C.
T4 construct: The amplification products were each inserted into pET-28a to obtain plasmids for expression of respective AARSs; His tag (N); made in house; host or cells: Escherichia coli BL21 (DE3)
T4 sequence (Q9WYU8 1-401): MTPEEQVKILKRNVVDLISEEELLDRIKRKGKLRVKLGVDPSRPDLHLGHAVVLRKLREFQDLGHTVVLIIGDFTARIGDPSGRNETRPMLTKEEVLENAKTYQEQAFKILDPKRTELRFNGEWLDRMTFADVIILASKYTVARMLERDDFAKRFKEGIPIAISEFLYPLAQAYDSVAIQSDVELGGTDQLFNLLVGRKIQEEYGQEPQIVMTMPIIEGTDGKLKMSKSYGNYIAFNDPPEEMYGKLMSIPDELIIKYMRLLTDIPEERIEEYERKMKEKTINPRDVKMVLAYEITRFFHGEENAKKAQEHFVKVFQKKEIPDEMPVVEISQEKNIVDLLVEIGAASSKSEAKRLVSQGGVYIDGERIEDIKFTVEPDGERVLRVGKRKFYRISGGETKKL
Protocol: as §1, §2, §3, §4, §5, §6

SMILES | Detection of the activity (pyrophosphate generation), LysRS (Thermotoga-derived LysRS) | Detection of the activity (pyrophosphate generation), SerRS (Thermotoga-derived SerRS) | Detection of the activity (pyrophosphate generation), TrpRS (Thermotoga-derived TrpRS) | Detection of the activity (pyrophosphate generation), TyrRS (Thermotoga) (Thermotoga-derived TyrRS)
C[C@H](N)C(=O)O [Ala, L-alanine] | − | − | − | −
N=C(N)NCCC[C@H](N)C(=O)O [Arg, L-arginine] | − | − | − | −
NC(=O)C[C@H](N)C(=O)O [Asn, L-asparagine] | − | − | − | −
N[C@@H](CC(=O)O)C(=O)O [Asp, L-aspartic acid] | − | − | − | −
N[C@@H](CS)C(=O)O [Cys, L-cysteine] | − | − | − | −
NC(=O)CC[C@H](N)C(=O)O [Gln, L-glutamine] | − | − | − | −
N[C@@H](CCC(=O)O)C(=O)O [Glu, L-glutamic acid] | − | − | − | −
NCC(=O)O [Gly, glycine] | − | − | − | −
N[C@@H](Cc1c[nH]cn1)C(=O)O [His, L-histidine] | − | − | − | −
CC[C@H](C)[C@H](N)C(=O)O [Ile, L-isoleucine] | − | − | − | −
CC(C)C[C@H](N)C(=O)O [Leu, L-leucine] | − | − | − | −
NCCCC[C@H](N)C(=O)O [Lys, L-lysine] | + | − | − | −
CSCC[C@H](N)C(=O)O [Met, L-methionine] | − | − | − | −
N[C@@H](Cc1ccccc1)C(=O)O [Phe, L-phenylalanine] | − | − | − | −
O=C(O)[C@@H]1CCCN1 [Pro, L-proline] | − | − | − | −
N[C@@H](CO)C(=O)O [Ser, L-serine] | − | + | − | −
C[C@@H](O)[C@H](N)C(=O)O [Thr, L-threonine] | − | − | − | −
N[C@@H](Cc1c[nH]c2ccccc12)C(=O)O [Trp, L-tryptophan] | − | − | + | −
N[C@@H](Cc1ccc(O)cc1)C(=O)O [Tyr, L-tyrosine] | − | − | − | +
CC(C)[C@H](N)C(=O)O [Val, L-valine] | − | − | − | −
